Results: patent publication US5420335A, “Parenteral nutrients based on watersoluble glycerol bisacetoacetates” (priority 1993, dated 1995)
Several values for one entry are separate records, joined by “and”; a condition that tells them apart may be missing. Equal entries are not always repeated. Entries after “also recorded” stand apart in the source; their conditions may differ.

How the values were obtained:
[1] = Oral dietary nitrogen (food) intake of intravenously infused rats; assay type: in vivo, rat (male Sprague-Dawley); conditions: Table 1, Example 2, average of 7 rats
[2] = as above; assay type: in vivo, rat (male Sprague-Dawley); conditions: for Dietary Nitrogen Intake: Table 1, Example 2
Description: (§1) Water was available ad libitum at all times.
(§2) The vein was then ligated dorsally to the catheter. […] Body weights were measured daily.
(§3) Infusate volume, oral food intake, body weight and urinary volume and total nitrogen were monitored daily for each rat. Infusate volume and food intake were determined by weighing the appropriate container at the start and end of each 24 hr. period. Measurements were recorded between 9 and 10 AM each day. At the end of the 7th day, rats were sacrificed, and blood and liver were harvested. Plasma was separated for measurement of free fatty acids, glucose, and ketone bodies. Liver was weighed and a sample was fixed in buffered formalin for gross histology.
(§4) The data were analyzed for significance by the one-way analysis of variance with repeated measures and comparing the effect of dietary treatment on each day. […] The null hypothesis was concluded invalid if p≤0.05. The analysis of variance was computed on a SAS statistical package.
This compound has an estimated energy density of 4.86 kcal/gram based on thermodynamic data from similar compounds.

[3] = Overall evaluation as a parenteral nutrient; assay type: in vivo, rat (male Sprague-Dawley); conditions: in words
Description: as §1, §2, §3, §4

[4] = Liver weight after 7 days of infusion; assay type: in vivo, rat (male Sprague-Dawley); conditions: for Liver/100 GM / Liver Wt.: Table 5, Example 2; for Liver/100 GM: as percentage of body weight
Description: as §3
(§5) The data were analyzed for significance by the one-way analysis of variance with repeated measures and comparing the effect of dietary treatment on each day. […] The null hypothesis was concluded invalid if p≤0.05. The analysis of variance was computed on a SAS statistical package. […]

[5] = Mortality and gross toxicity on intravenous infusion; conditions: Example 2; 12.5 g/100 mL in 0.9% saline, 50 mL/day i.v.
Description: as §1, §2

[6] = Plasma free fatty acids, glucose and ketone bodies after 7 days of infusion; assay type: in vivo, rat (male Sprague-Dawley); conditions: end of day 7; for ACAC / BOHB / FFa / Glucose / Ratio: A/B / T.KB: Table 5, Example 2; for T.KB: total ketone bodies
Description: as §3, §4

[7] = Daily urinary nitrogen losses of intravenously infused rats; assay type: in vivo, rat (male Sprague-Dawley); conditions: Table 2, Example 2
Description: as §1, §2, §3, §5

[8] = day 1, individual rat, listed as BISACETOACETYLGLYCEROL
[9] = day 2, individual rat, listed as BISACETOACETYLGLYCEROL

## Glycerol bis-acetoacetate [Compound 1]
[1]; day 1
  Dietary Nitrogen Intake: 216 MG N
[1]; day 2
  Dietary Nitrogen Intake: 333 MG N
[1]; day 3
  Dietary Nitrogen Intake: 408 MG N
[1]; day 4
  Dietary Nitrogen Intake: 454 MG N
[1]; day 5
  Dietary Nitrogen Intake: 419 MG N
[1]; day 7
  Dietary Nitrogen Intake: 389 MG N
[2]; [8]
  Dietary Nitrogen Intake: 118.44 MG N and 125.02 MG N and 138.18 MG N and 611.94 MG N and 250.04 MG N and 151.34 MG N
[2]; [9]
  Dietary Nitrogen Intake: 342.16 MG N and 434.28 MG N and 131.6 MG N and 519.82 MG N and 447.44 MG N and 322.42 MG N
[2]; day 3, individual rat, listed as BISACETOACETYLGLYCEROL
  Dietary Nitrogen Intake: 302.68 MG N and 631.68 MG N and 105.28 MG N and 447.44 MG N and 473.76 MG N and 263.2 MG N
[2]; day 4, individual rat, listed as BISACETOACETYLGLYCEROL
  Dietary Nitrogen Intake: 671.16 MG N and 638.26 MG N and 78.96 MG N and 579.04 MG N and 414.54 MG N and 407.96 MG N and 388.22 MG N
[2]; day 5, individual rat, listed as BISACETOACETYLGLYCEROL
  Dietary Nitrogen Intake: 559.3 MG N and 572.46 MG N and 230.3 MG N and 388.22 MG N and 618.52 MG N and 269.78 MG N and 296.1 MG N
[2]; day 6, average of 7 rats
  Dietary Nitrogen Intake: 361 MG N
[2]; day 6, individual rat, listed as BISACETOACETYLGLYCEROL
  Dietary Nitrogen Intake: 539.56 MG N and 230.3 MG N and 59.22 MG N and 375.06 MG N and 625.1 MG N and 414.54 MG N and 282.94 MG N
[2]; day 7, individual rat, listed as BISACETOACETYLGLYCEROL
  Dietary Nitrogen Intake: 565.88 MG N and 263.2 MG N and 151.34 MG N and 421.12 MG N and 644.84 MG N and 473.76 MG N and 203.98 MG N
[2]; in words, vs saline and other groups, 7 days
  differences in dietary nitrogen intake among the three groups: no differences in dietary nitrogen intake among the three groups
[3]
  efficacy as parenteral nutrient / energy source: providing significant energy beyond that which was available from oral dietary intake
[3]; listed as 1,2- and 1,3-bisacetoacetyl glycerol
  efficacy as parenteral nutrient / energy source: unexpectedly high nutrient activity
[4]; average of 7 rats
  Liver/100 GM: 3.223
[4]; individual rat
  Liver/100 GM: 2.859 and 3.494 and 3.130 and 3.795 and 2.482 and 3.183 and 3.620
[4]; end of day 7, average of 7 rats
  Liver Wt.: 8.603 Grams
[4]; end of day 7, individual rat
  Liver Wt.: 7.12 Grams and 9.12 Grams and 7.92 Grams and 11.65 Grams and 6.85 Grams and 8.69 Grams and 8.87 Grams
[4]; in words, end of day 7
  liver weight and percentage liver weight: similarity between glucose infused and experimental compound infused rats liver
[5]
  rats died from causes unknown: Five
[6]; plasma, average of 7 rats
  ACAC: 0.716 mmol/L
  BOHB: 0.776 mmol/L
  FFa: 0.563 mmol/L
  Glucose: 117.789 mg/dL
  Ratio: A/B: 1.171
  T.KB: 1.492 mmol/L
[6]; plasma, individual rat
  ACAC: 0.982 mmol/L and 0.851 mmol/L and 0.939 mmol/L and 0.447 mmol/L and 0.869 mmol/L and 0.550 mmol/L and 0.377 mmol/L
  BOHB: 0.797 mmol/L and 0.770 mmol/L and 1.059 mmol/L and 0.529 mmol/L and 1.021 mmol/L and 0.404 mmol/L and 0.849 mmol/L
  FFa: 0.540 mmol/L and 0.574 mmol/L and 0.745 mmol/L and 0.466 mmol/L and 0.483 mmol/L and 0.615 mmol/L and 0.519 mmol/L
  Glucose: 94.920 mg/dL and 149.000 mg/dL and 114.200 mg/dL and 163.500 mg/dL and 89.000 mg/dL and 122.100 mg/dL and 91.800 mg/dL
  Ratio: A/B: 0.812 and 0.905 and 1.128 and 1.185 and 1.175 and 0.735 and 2.254
  T.KB: 1.779 mmol/L and 1.621 mmol/L and 1.998 mmol/L and 0.976 mmol/L and 1.890 mmol/L and 0.954 mmol/L and 1.226 mmol/L
[6]; in words
  blood / plasma glucose: normal blood glucose; also recorded: did not have the hyperglycemia associated with glucose infusion
[6]; in words, plasma
  free fatty acid concentration: not different for the three groups
  ketone bodies: elevated; also recorded: approximately the maximum associated with total fasting in the rat
[7]; day 1, average of 7 rats
  Urinary Nitrogen: 166 mg
[7]; [8]
  Urinary Nitrogen: 116.21 mg and 250.2 mg and 187.3 mg and 123.37 mg and 182.18 mg and 159.89 mg and 145.06 mg
[7]; day 2, average of 7 rats
  Urinary Nitrogen: 192 mg
[7]; [9]
  Urinary Nitrogen: 315.78 mg and 264.22 mg and 139.27 mg and 174.34 mg and 187.22 mg and 165.19 mg and 94.71 mg
